Assay [1] concerns the target T1, HsPRS (Homo sapiens, UniProt P07814).
T1 construct: gene EPRS1
Kind of assay: malachite green aminoacylation assay, recombinant enzyme; TSA. Type of assay: biochemical.

Assay [2] concerns the target T2, Toxoplasma gondii prolyl-tRNA synthetase (TgPRS) (Toxoplasma gondii, UniProt A0A7J6JUK2).
T2 construct: gene TGRH88_057780
T2 sequence (A0A7J6JUK2 215-711): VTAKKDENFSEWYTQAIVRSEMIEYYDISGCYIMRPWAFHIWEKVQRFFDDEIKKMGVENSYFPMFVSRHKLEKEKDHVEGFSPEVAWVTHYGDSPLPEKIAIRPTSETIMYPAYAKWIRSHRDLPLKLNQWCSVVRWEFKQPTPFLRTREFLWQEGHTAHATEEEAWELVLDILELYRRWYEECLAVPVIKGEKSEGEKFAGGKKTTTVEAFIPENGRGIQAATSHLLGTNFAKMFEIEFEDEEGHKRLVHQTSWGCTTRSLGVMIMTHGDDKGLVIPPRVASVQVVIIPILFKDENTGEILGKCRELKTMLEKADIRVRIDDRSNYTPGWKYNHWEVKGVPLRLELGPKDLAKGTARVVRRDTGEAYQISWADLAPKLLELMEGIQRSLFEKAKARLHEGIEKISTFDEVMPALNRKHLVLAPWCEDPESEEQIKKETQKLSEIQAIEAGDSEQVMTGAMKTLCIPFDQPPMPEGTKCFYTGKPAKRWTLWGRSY
Kind of assay: co-crystal structure with L95 at […] Å; TSA; malachite green aminoacylation assay (IC50). Type of assay: biochemical.

The target of assay [3] is T2, Toxoplasma gondii prolyl-tRNA synthetase (TgPRS). Kind of assay: co-crystal structures at […] Å (with L-pro, 7EVV; with HFG, 7EVU); TSA; malachite green aminoacylation assay (IC50). Type of assay: biochemical.
Assay [4] shares this target. Kind of assay: co-crystal structure with L95 at […] Å. Type of assay: binding.

The term IC50 denotes the concentration that gives 50% inhibition.

Where two headings read alike, the source gives them in different places.

T1 sequence (P07814 whole entry): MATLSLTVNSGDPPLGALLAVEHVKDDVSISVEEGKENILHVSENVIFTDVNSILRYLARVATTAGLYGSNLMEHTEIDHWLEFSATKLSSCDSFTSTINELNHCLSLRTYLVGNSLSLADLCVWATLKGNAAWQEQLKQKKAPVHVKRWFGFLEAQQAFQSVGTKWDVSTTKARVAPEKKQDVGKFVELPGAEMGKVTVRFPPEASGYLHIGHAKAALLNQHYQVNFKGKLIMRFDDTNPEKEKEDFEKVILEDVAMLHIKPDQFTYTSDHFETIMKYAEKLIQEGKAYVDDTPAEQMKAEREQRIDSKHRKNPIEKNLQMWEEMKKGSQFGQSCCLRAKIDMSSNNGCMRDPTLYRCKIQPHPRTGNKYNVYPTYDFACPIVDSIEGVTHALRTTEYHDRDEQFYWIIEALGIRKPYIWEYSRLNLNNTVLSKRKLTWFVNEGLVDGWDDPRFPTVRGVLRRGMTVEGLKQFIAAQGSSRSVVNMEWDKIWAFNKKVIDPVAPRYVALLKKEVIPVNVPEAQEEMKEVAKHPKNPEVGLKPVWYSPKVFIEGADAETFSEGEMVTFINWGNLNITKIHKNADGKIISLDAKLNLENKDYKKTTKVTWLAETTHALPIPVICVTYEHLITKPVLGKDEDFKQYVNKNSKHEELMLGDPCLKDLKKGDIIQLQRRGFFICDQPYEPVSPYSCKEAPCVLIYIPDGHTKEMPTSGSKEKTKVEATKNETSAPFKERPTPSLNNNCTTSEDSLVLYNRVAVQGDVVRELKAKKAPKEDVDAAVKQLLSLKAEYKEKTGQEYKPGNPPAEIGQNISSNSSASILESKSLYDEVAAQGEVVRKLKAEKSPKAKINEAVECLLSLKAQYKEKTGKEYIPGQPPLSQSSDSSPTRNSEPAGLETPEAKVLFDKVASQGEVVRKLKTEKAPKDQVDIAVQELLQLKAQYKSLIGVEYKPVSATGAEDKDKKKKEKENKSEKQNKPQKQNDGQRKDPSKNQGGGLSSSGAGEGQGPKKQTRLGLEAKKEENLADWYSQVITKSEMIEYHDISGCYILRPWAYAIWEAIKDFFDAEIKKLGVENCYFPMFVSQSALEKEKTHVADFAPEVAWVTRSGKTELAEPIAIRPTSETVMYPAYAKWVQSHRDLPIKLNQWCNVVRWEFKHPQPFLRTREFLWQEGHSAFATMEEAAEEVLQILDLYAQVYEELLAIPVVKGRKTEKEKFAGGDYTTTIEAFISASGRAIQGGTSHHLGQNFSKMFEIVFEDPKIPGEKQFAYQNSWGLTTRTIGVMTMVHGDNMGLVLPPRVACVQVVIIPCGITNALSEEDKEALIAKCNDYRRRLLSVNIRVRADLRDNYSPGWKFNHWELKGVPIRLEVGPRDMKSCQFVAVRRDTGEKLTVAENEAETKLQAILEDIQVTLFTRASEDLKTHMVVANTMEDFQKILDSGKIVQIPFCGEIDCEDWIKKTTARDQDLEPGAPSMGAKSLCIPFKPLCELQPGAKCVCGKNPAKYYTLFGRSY

As to `O=C(C[C@H]1NCCC[C@@H]1O)Cn1cnc2cc(Br)c(Cl)cc2c1=O` (racemic) [HFG, halofuginone], the IC50 in assay [1] (read-out: IC50) amounted to 10.7 nM; in assay [2], 5.41 nM.

`Cc1cc(N2CC[C@@](C#N)(C3CC3)C2=O)cc(NC(=O)Cc2ccccc2)n1` [L95]: the concentration for half-maximal inhibition (IC50) in assay [1] and in assay [3] was 47.7 nM in each case.

Take `O=C(O)[C@@H]1CCCN1` [L-pro, L-proline]: the “co-crystal structure with L95 at 1.7 Å” value in assay [4] is “forms a salt bridge between the carboxylic group of L-pro and the guanidium group of Arg470”.

Values taken from article PMC9004777, “Double drugging of prolyl-tRNA synthetase provides a new paradigm for anti-infective drug development” (PLoS Pathogens, 2022).
